Patent US20130345249A1, “Formulations for the prevention and treatment of Wolbachia-related disease” (priority 2011, published 2013)

Tests used:
[1] = system: Wolbachia; test: Microscopy-based high-throughput screen in Wolbachia-infected Drosophila tissue culture cells; type: cell-based; conditions: 100 uM in media, 3 days incubation
Description: In collaboration with the microscope company Molecular Devices, we optimized journaling software that analyzes the level of cytoplasmic DAPI (Wolbachia) fluorescence per cell in all wells of the plate. […] In this pilot, compounds were added to Wolbachia-infected cells at a final concentration of 100 uM in media and allowed to incubate for 3 days. Cells were then fixed, stained, imaged, and analyzed by automated machinery.

[2] = system: Brugia malayi; test: Brugia malayi drug feeding assay (worm mortality); type: in vivo
Source text: Small molecules of interest found by the primary tissue culture screen must be tested in animal models to determine their relevance to Wolbachia in vivo. Because Wolbachia are vital endosymbionts of Brugia malayi worms that cause Elephantiasis, the next important step was to validate whether compounds found in the high-throughput screen could affect the viability of those worms. To assay this, we performed a pilot feeding assay by distributing Brugia malayi into 12-well plates containing tissue culture media and different compounds added to a final concentration of 100 uM. […] In this feeding assay, we observed that worms fed with pararosanaline pamoate ceased movement within 2 hours, whereas all other treatments took substantially longer to affect the worms (FIG. 3). Our preliminary dose-response tests of pararosanaline pamoate indicate that the lethal feeding dose lies between 25 uM and 10 uM.

[3] = system: Wolbachia; test: Confocal imaging of Wolbachia in treated Brugia malayi worms; type: in vivo
[4] = system: Wolbachia; test: Wolbachia titer in ovarian tissues of fed D. melanogaster (confocal microscopy, image-based quantification); type: in vivo, Wolbachia (in Drosophila melanogaster)
Description: As the next validation step, it was important to determine whether the compounds found in our screen can cure a host of Wolbachia while also permitting host viability. To investigate this, we first performed a feeding assay using Wolbachia-infected Drosophila melanogaster flies. Flies were provided with fly food containing pararosanaline pamoate at concentrations of 100 uM or less, and viability was scored over time. […] To then determine whether the treatment affected the quantity of Wolbachia carried by the D. melanogaster host, we fed pararosaniline pamoate to Wolbachia-infected fruit flies for 3 days and analyzed Wolbachia titer in ovarian tissues. This was performed through use of confocal microscopy and image-based bacterial quantification software.

SMILES | cytoplasmic DAPI (Wolbachia) fluorescence per cell / hit in tissue culture screen [1] | time until worms ceased movement ([2]; 100 uM in tissue culture media, 12-well plates) | worm viability after treatment (FIG. 3) ([2]; drug feeding assay) | number of Wolbachia carried by host, worms killed by drug vs untreated worms [3] | cytoplasmic DAPI (Wolbachia) fluorescence per cell / hit in tissue culture screen ([1]; listed as pararosanaline pamoate) | Wolbachia titer in Drosophila oocytes (FIG. 5) ([4]; average quantity within a single focal plane of oocytes) | Wolbachia titer relative to control levels ([4]; fed for 3 days, ovarian tissues (oocytes), preliminary)
Cc1ncc(CO)c(CO)c1O.Cl [pyroxidine HCl] | found in the pilot tissue culture screen |  |  |  |  |  | 
COC(=O)[C@H]1[C@H]2C[C@H]3c4[nH]c5cc(OC)ccc5c4CCN3C[C@H]2C[C@@H](OC(=O)c2cc(OC)c(OC)c(OC)c2)[C@@H]1OC [Isoreserpine] | identified by the screening methods of the invention |  |  |  |  |  | 
CC(C)(C)CC(C)(C)c1ccc(O)c(Cc2ccc(Cl)cc2Cl)c1 [Clofoctol] | identified by the screening methods of the invention |  |  |  |  |  | 
N=C1C=CC(=C(c2ccc(N)cc2)c2ccc(N)cc2)C=C1 [Pararosaniline Pamoate] | identified by the screening methods of the invention | ≤ 2 h | Inviable | no visible difference | found in the pilot tissue culture screen | reduced | 60%
